Test results published in patent publication US7709645B2, “Pyrrolo-pyridine kinase modulators” (SGX Pharmaceuticals, Inc., priority 2004, dated 2010).

Biological target: T1, MET kinase (Homo sapiens, UniProt P08581)
T1 construct: Sf9 insect cell culture expressing the kinase domain of human Met; 6x Histidine tag (TEV-cleavable) (cleaved yes); made in house; host or cells: Sf9 insect cells
Test: Met Bioassay (luminescence-based enzyme assay, Kinase-Glo)
Format: biochemical
Settings: 10 μM ATP
Excerpt: In addition to the c-Abl PK/LDH coupled assay (above), homogeneous luminescence-based inhibitor screening assays were developed for c-Abl, MET, AurA, and PDK1 kinases (among others). Each of these assays made use of an ATP depletion assay (Kinase-Glo™, Promega Corporation, Madison, Wis.) to quantitate kinase activity. The Kinase-Glo™ format uses a thermostable luciferase to generate luminescent signal from ATP remaining in solution following the kinase reaction. The luminescent signal is inversely correlated with the amount of kinase activity.
Materials: Poly Glu-Tyr (4:1) substrate (Sigma Cat# P-0275), ATP (Sigma Cat#A-3377, FW=551), HEPES buffer, pH 7.5, Bovine serum albumin (BSA) (Roche 92423420), MgCl2, Staurosporine (Streptomyces sp. Sigma Cat#85660-1MG), white Costar 384-well flat-bottom plate (VWR Cat#29444-088). MET kinase (see below), Kinase-Glo™ (Promega Cat#V6712).
Stock Solutions: 10 mg/ml poly Glu-Tyr in water, stored at −20° C.; 100 mM HEPES buffer, pH 7.5 (5 ml 1M stock+45 ml miliQH2O); 10 mM ATP (5.51 mg/ml in dH2O) stored at −20° C. (diluted 50 μl into total of 10 ml miliQH2O daily=50 μM ATP working stock); 1% BSA (1 g BSA in 100 ml 0.1M HEPES, pH 7.5, stored at −20° C.), 100 mM MgCl2; 200 μM Staurosporine, 2× Kinase-Glo™ reagent (made fresh or stored at −20° C.).
Standard Assay Setup for 384-well format (20 μl kinase reaction, 40 μl detection reaction): 10 mM MgCl2; 0.3 mg/ml poly Glu-Tyr; 0.1% BSA; 1 μl test compound (in DMSO); 0.4 μg/ml MET kinase; 10 μM ATP; 100 mM HEPES buffer. Positive controls contained DMSO with no test compound. Negative controls contained 10 μM staurosporine. The kinase reactions were initiated at time t=0 by the addition of ATP. Kinase reactions were incubated at 21° C. for 60 min, then 20 μl of Kinase-Glo™ reagent were added to each well to quench the kinase reaction and initiate the luminescence reaction. After a 20 min incubation at 21° C., the luminescence was detected in a plate-reading luminometer.
The cell pellets produced from half of a 12 L Sf9 insect cell culture expressing the kinase domain of human Met were resuspended in a buffer containing 50 mM Tris-HCl pH 7.7 and 250 mM NaCl, in a volume of approximately 40 ml per 1 L of original culture. One tablet of Roche Complete, EDTA-free protease inhibitor cocktail (Cat# 1873580) was added per 1 L of original culture. The suspension was stirred for 1 hour at 4° C. Debris was removed by centrifugation for 30 minutes at 39,800×g at 4° C. The supernatant was decanted into a 500 ml beaker and 10 ml of 50% slurry of Qiagen Ni-NTA Agarose (Cat# 30250) that had been pre-equilibrated in 50 mM Tris-HCl pH 7.8, 50 mM NaCl, 10% Glycerol, 10 mM Imidazole, and 10 mM Methionine, were added and stirred for 30 minutes at 4° C. The sample was then poured into a drip column at 4° C. and washed with 10 column volumes of 50 mM Tris-HCl pH 7.8, 500 mM NaCl, 10% Glycerol, 10 mM Imidazole, and 10 mM Methionine. The protein was eluted using a step gradient with two column volumes each of the same buffer containing 50 mM, 200 mM, and 500 mM Imidazole, sequentially. The 6× Histidine tag was cleaved overnight using 40 units of TEV protease (Invitrogen Cat#10127017) per 1 mg of protein while dialyzing in 50 mM Tris-HCl pH 7.8, 500 mM NaCl, 10% Glycerol, 10 mM Imidazole, and 10 mM Methionine at 4° C. The 6× Histidine tag was removed by passing the sample over a Pharmacia 5 ml IMAC column (Cat# 17-0409-01) charged with Nickel and equilibrated in 50 mM Tris-HCl pH 7.8, 500 mM NaCl, 10% Glycerol, 10 mM Imidazole, and 10 mM Methionine. The cleaved protein bound to the Nickel column at a low affinity and was eluted with a step gradient. The step gradient was run with 15% and then 80% of the B-side (A-side=50 mM Tris-HCl pH 7.8, 500 mM NaCl, 10% Glycerol, 10 mM Imidazole, and 10 mM Methionine; B-side=50 mM Tris-HCl pH 7.8, 500 mM NaCl, 10% Glycerol, 500 mM Imidazole, and 10 mM Methionine) for 4 column volumes each. […]

T1 sequence (P08581 1078-1345 limits assumed): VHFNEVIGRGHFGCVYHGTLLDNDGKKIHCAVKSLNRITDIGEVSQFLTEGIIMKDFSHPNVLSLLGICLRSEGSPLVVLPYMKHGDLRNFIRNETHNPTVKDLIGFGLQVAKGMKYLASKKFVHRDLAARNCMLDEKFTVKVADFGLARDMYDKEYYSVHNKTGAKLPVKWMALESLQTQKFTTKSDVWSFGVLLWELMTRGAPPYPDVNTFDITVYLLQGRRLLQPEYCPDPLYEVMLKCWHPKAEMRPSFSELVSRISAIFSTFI

SMILES	IC50
c1cc2cc(-c3c[nH]c4ncc(-c5ccc6[nH]cnc6c5)cc34)ccc2[nH]1 [AE22]	1 to 5 µM
COc1cc(-c2cnc3[nH]cc(-c4ccc(O)cc4)c3c2)ccc1O [AE58]	1 to 5 µM
COc1ccccc1-c1c[nH]c2ncc(-c3ccc(CN(C)C)cc3)cc12 [AE8]	< 1 µM
Oc1cccc(-c2cnc3[nH]cc(-c4ccc(O)c(F)c4)c3c2)c1 [AE48]	< 1 µM
O=C(c1cncc(-c2cnc3[nH]cc(-c4ccc5cc[nH]c5c4)c3c2)c1)N1CCOCC1 [AE14]	< 1 µM

More lines, now with the values ahead:

IC50	SMILES
< 1 µM	COc1ccccc1-c1c[nH]c2ncc(-c3cccc(C(=N)N4CCCCC4)c3)cc12 [AE42]
1 to 5 µM	COc1cc(-c2cnc3[nH]cc(-c4ccccc4OC)c3c2)ccc1OCCN1CCCC1 [AE65]
1 to 5 µM	COc1ccccc1-c1c[nH]c2ncc(-c3ccc(O)c(CN4CCCN(C)CC4)c3)cc12 [AE41]
